{
  "source": "patent US10149841B2",
  "about": "“Compound of 3-hydroxyl pyridine, preparation method thereof and pharmaceutical use thereof” (SHENYANG SUNSHINE PHARMACEUTICAL CO. LTD., priority 2015, dated 2018)",
  "data": [
    {"target": "HIF Prolyl hydroxylases 2 (PHD2) (Homo sapiens (Human), UniProt Q9GZT9)", "sequence (Q9GZT9 whole entry, species assumed)": "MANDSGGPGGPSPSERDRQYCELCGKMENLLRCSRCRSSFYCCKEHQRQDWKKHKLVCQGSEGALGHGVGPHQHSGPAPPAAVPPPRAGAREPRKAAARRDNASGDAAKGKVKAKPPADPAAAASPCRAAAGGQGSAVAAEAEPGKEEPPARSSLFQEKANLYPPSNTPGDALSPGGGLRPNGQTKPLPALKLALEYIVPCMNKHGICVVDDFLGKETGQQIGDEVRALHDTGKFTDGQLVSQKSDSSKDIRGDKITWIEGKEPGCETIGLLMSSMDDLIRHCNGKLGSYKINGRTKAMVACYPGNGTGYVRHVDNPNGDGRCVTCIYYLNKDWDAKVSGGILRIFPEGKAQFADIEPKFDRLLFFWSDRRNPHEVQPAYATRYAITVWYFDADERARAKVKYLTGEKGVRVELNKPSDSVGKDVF", "test": "Inhibitory effect on PHD2 by fluorescence polarization (HIF-1α / VBC complex interaction)", "type": "biochemical", "details": "PHD2 0.5 μg/μl, FAM-HIF (556-575) 1 μM, FP readout with GST-VBC complex", "method": "Biological Example 2: Detection of Inhibitory Effect of the Compounds on PHD2 (IC50)\nThe interaction between hypoxia-inducible factor HIF-1α and VBC complex (von Hippel-Lindau protein-Elongin B-Elongin C, VBC) was detected by Fluorescence polarization (FP) method, to measure the enzyme inhibitory activity of the HIF Prolyl hydroxylases 2 (PHD2) inhibitor compounds.\nTo a NETN (20 mM Tris.HCl, 100 mM NaCl, 1 mM EDTA, 0.5% NP-40, 1 mM PMSF) buffer containing 200 μM ascorbic acid, 20 μM α-ketoglutaric acid, 100 μM FeCl2 was added FAM-HIF (556-575) at a final concentration of 1 μM in the dark. Subsequently, the desired concentration of the test compound or the positive compound was added (the compound was replaced by the buffer in the negative control and the positive control). Finally, PHD2 was added at a final concentration of 0.5 μg/μl (PHD2 was replaced by the buffer in the negative control). They were mixed well and allowed to stand at room temperature for 30 minutes in the dark followed by 95° C. water bath for 1 minute, and then the reaction was terminated. After the temperature drops to room temperature, the sample was prepared well for use. EBC buffer (50 mM Tris.HCl, 120 mM NaCl, 0.5% NP-40) was added to the corresponding wells of a black 96-well test plate. A GST-VBC complex was added to the corresponding test wells at a final concentration of 300 nM (using the wells containing only EBC buffer as blank wells). Subsequently, the corresponding PHD2 prolyl hydroxylation reaction sample was added in the dark as a substrate with a final concentration of 100 nM. After mixing well, the lateral and longitudinal fluorescence intensity values were measured using a full-wavelength multifunctional microplate reader (TECAN infinite M1000) at an excitation wavelength of […] and an emission wavelength of 518 nm.\nThe fluorescence polarization (mP) was calculated: mP=1000×(lateral value−G factor×longitudinal value)/(lateral value+G factor×longitudinal value)\nwherein, lateral value=lateral fluorescence intensity value of test well−lateral fluorescence intensity value of blank well, • longitudinal value=longitudinal fluorescence intensity value of test well−longitudinal fluorescence intensity value of blank well,\nPHD2 inhibition rate (%) of the test compound was calculated according to the following formula: Inhibition rate (%)=1−(mP test well−mP negative control well)/(mP positive control well−mP negative control well).\nThe IC50 was calculated using the non-linear regression data analysis method of Graphpad Prism 4.0 software ([…]).", "units": {"IC50": "µM"}, "values": [
      {"smiles": "Cc1ccc(Oc2cnc(C(=O)NCC(=O)O)c(O)c2)c(C)c1", "note": "[Compound 19, 2-(5-(2,4-dimethylphenoxy)-3-hydroxypyridine-2-formamido) acetic acid]", "IC50": 63},
      {"smiles": "O=C(O)CNC(=O)c1ncc(Oc2cccc(F)c2F)cc1O", "note": "[Compound 9, 2-(5-(2,3-difluorophenoxy)-3-hydroxypyridine-2-formamido) acetic acid]", "IC50": 15},
      {"smiles": "O=C(O)CNC(=O)c1ncc(Oc2cccc(Cl)c2)cc1O", "note": "[Compound 22, 2-(5-(3-chlorophenoxy)-3-hydroxypyridine-2-formamido) acetic acid]", "IC50": 236},
      {"smiles": "O=C(O)CNC(=O)c1ncc(Oc2ccccc2)cc1O", "note": "[Compound 1, 2-(3-hydroxy-5-phenoxy-2-pyridylformamido) acetic acid]", "IC50": 84},
      {"smiles": "Cc1cccc(Oc2cnc(C(=O)NCC(=O)O)c(O)c2)c1C", "note": "[Compound 5, 2-(5-(2,3-dimethylphenoxy)-3-hydroxypyridine-2-formamido) acetic acid]", "IC50": 237},
      {"smiles": "O=C(O)CNC(=O)c1ncc(Oc2ccc3ccccc3c2)cc1O", "note": "[Compound 8, 2-(3-hydroxy-5-(naphthalen-2-oxo)pyridine-2-formamido) acetic acid]", "IC50": 91}
    ]}
  ]
}
